Source: patent US20210207101A1, “Hybrid Thymus, Methods of Making, and Methods of Using to Induce Xenograft Tolerance, Restore Immunocompetence and Thymic Function” (THE TRUSTEES OF COLUMBIA UNIVERSITY IN THE CITY OF NEW YORK, priority 2018, published 2021)

What was measured:
[1] = test system: human thymopoiesis in grafted thymi; experiment: Human immune cell reconstitution after transplantation of 2DG-treated or untreated pig thymi into humanized NSG mice; type: in vivo, mouse; settings: 100 mM 2DG for 12 hours before grafting; mice bled every 2-3 weeks
Procedure: Using the 2DG treatment to deplete the pig thymocytes and the Hamilton syringe (Method C described above) for injection of human thymic stromal cells, a hybrid thymus was generated and tested in vivo. Specifically, two vials of fetal pig thymus were thawed. After pipetting up and down to release as many thymocytes as possible, half of the pieces were treated with 100 mM 2DG for 12 hours and the other half remained untreated. On the next day, six vials of human fetal thymus were thawed. After pipetting up and down to release as many thymocytes as possible, liberase was used to digest and release the stromal cells and make a single-cell suspension. After depletion of human CD45+ cells using magnetic-activated cell sorting (MACS), 10 million thymic stromal cells were dissolved in 150 μl of cold Matrigel at a concentration of 66,000 cells per μl. Around 10 μl of the cells (around 660,000 thymic stromal cells) were injected into each fetal pig thymus piece (either 2DG-treated and non-treated). The pieces were kept with fine forceps at room temperature for about 2 minutes until the Matrigel solidified. Then, each piece was transferred to a well of a 96-well plate containing medium with 10% human serum. […] Every 2-3 weeks following transplantation, the mice were bled, and the level of human immune cell reconstitution was evaluated.

pig thymocytes = experiment: Ex vivo depletion of thymocytes in pig thymic fragments; type: cell-based; settings: 2DG 100 mM for 12 hours
Description: There are different strategies to deplete the thymocytes in pig thymic fragments ex vivo, including anti-pig CD3 immunotoxin and complement-mediated toxicity (rabbit serum as source of complements plus anti-pig CD2). However, these two strategies were not effective. […] Results not shown.
[…] The ratio of remaining live double positive CD4 and CD8 cells (DP) or single positive (SP) CD4 (SP-CD4) or SP-CD8 cells on double negative (DN) cells, which contain the stromal cells, was used as the readout.

SMILES: O=CC[C@@H](O)[C@H](O)[C@H](O)CO [2DG, 2-deoxyglucose]
- effect of treatment of pig thymic fragments on human thymopoiesis in grafted thymi [1]: did not affect human thymopoiesis
- ratio of remaining live DP or SP-CD4 or SP-CD8 cells on double negative (DN) cells (pig thymocytes): lowest ratios
